Assay results: article PMC8699473, “An Easily Expandable Multi-Drug LC-MS Assay for the Simultaneous Quantification of 57 Oral Antitumor Drugs in Human Plasma” (Cancers, 2021)

Assay: Long-term stability in spiked pooled human plasma

SMILES	Long-term stability, 1 month, -20°C Accuracy [%] (validation standard 2xLLOV)	Long-term stability, 1 month, -80°C Accuracy [%] (validation standard 2xLLOV)	Long-term stability, 2 month, -80°C Accuracy [%] (validation standard 2xLLOV)	Long-term stability, 3 month, -20°C Accuracy [%] (validation standard 2xLLOV)	Long-term stability, 3 month, -80°C Accuracy [%] (validation standard 2xLLOV)	Long-term stability, 1 month, -20°C Accuracy [%] (validation standard LLOV)	Long-term stability, 1 month, -80°C Accuracy [%] (validation standard LLOV)	Long-term stability, 2 month, -20°C Accuracy [%] (validation standard LLOV)	Long-term stability, 2 month, -80°C Accuracy [%] (validation standard LLOV)	Long-term stability, 3 month, -20°C Accuracy [%] (validation standard LLOV)	Long-term stability, 3 month, -80°C Accuracy [%] (validation standard LLOV)	Long-term stability, 1 month, -20°C Accuracy [%] (validation standard MOV)	Long-term stability, 1 month, -80°C Accuracy [%] (validation standard MOV)	Long-term stability, 2 month, -20°C Accuracy [%] (validation standard MOV)	Long-term stability, 2 month, -80°C Accuracy [%] (validation standard MOV)	Long-term stability, 3 month, -20°C Accuracy [%] (validation standard MOV)	Long-term stability, 3 month, -80°C Accuracy [%] (validation standard MOV)	Long-term stability, 1 month, -20°C Accuracy [%] (validation standard ULOV)	Long-term stability, 1 month, -80°C Accuracy [%] (validation standard ULOV)	Long-term stability, 2 month, -20°C Accuracy [%] (validation standard ULOV)	also measured
CS(=O)(=O)CCNCc1ccc(-c2ccc3ncnc(Nc4ccc(OCc5cccc(F)c5)c(Cl)c4)c3c2)o1 [Lapatinib]	91.4	92.2	102.3	72.0	96.3	85.5	91.6	80.7	98.5	55.4	95.3	95.3	97.6	93.7	103.0	78.1	101.0	96.6	94.5	101.5	Long-term stability, 2 month, -20°C Accuracy [%] (validation standard 2xLLOV): 84.4%; Long-term stability, 6 weeks, 4°C, without daylight Accuracy [%] (validation standard 2xLLOV): 34.8%; Long-term stability, 6 weeks, 4°C, without daylight Accuracy [%] (validation standard LLOV): 28.2%; Long-term stability, 6 weeks, 4°C, without daylight Accuracy [%] (validation standard MOV): 101.1%; Long-term stability, 2 month, -80°C Accuracy [%] (validation standard ULOV): 100.9%; Long-term stability, 3 month, -20°C Accuracy [%] (validation standard ULOV): 95.4%; Long-term stability, 3 month, -80°C Accuracy [%] (validation standard ULOV): 96.7%; Long-term stability, 6 weeks, 4°C, without daylight Accuracy [%] (validation standard ULOV): 99.9%
CCN(CC)CCNC(=O)c1c(C)[nH]c(/C=C2\C(=O)Nc3ccc(F)cc32)c1C [Sunitinib]	121.2	108.5	108.9	123.9	131.1	132.8	122.7	114.3	112.8	130.7	135.5	118.5	107.0	106.3	102.8	123.6	120.9	119.5	109.0	109.7	Long-term stability, 2 month, -20°C Accuracy [%] (validation standard 2xLLOV): 108.9%; Long-term stability, 6 weeks, 4°C, without daylight Accuracy [%] (validation standard 2xLLOV): 85.9%; Long-term stability, 6 weeks, 4°C, without daylight Accuracy [%] (validation standard LLOV): 96.2%; Long-term stability, 6 weeks, 4°C, without daylight Accuracy [%] (validation standard MOV): 109.9%; Long-term stability, 2 month, -80°C Accuracy [%] (validation standard ULOV): 108.8%; Long-term stability, 3 month, -20°C Accuracy [%] (validation standard ULOV): 122.5%; Long-term stability, 3 month, -80°C Accuracy [%] (validation standard ULOV): 118.4%; Long-term stability, 6 weeks, 4°C, without daylight Accuracy [%] (validation standard ULOV): 105.4%
C[C@@H](Oc1cc(-c2cnn(C3CCNCC3)c2)cnc1N)c1c(Cl)ccc(F)c1Cl [Crizotinib]	87.5	85.4	93.8	87.5	90.2	77.1	75.4	74.2	78.9	72.6	73.9	90.2	89.3	96.3	96.2	94.9	95.1	84.4	80.1	88.8	Long-term stability, 2 month, -20°C Accuracy [%] (validation standard 2xLLOV): 90.8%; Long-term stability, 6 weeks, 4°C, without daylight Accuracy [%] (validation standard 2xLLOV): 68.4%; Long-term stability, 6 weeks, 4°C, without daylight Accuracy [%] (validation standard LLOV): 58.2%; Long-term stability, 6 weeks, 4°C, without daylight Accuracy [%] (validation standard MOV): 93.4%; Long-term stability, 2 month, -80°C Accuracy [%] (validation standard ULOV): 89.2%; Long-term stability, 3 month, -20°C Accuracy [%] (validation standard ULOV): 88.4%; Long-term stability, 3 month, -80°C Accuracy [%] (validation standard ULOV): 89.7%; Long-term stability, 6 weeks, 4°C, without daylight Accuracy [%] (validation standard ULOV): 83.8%
O=C1CCC(N2C(=O)c3ccccc3C2=O)C(=O)N1 (stereo not drawn) [Thalidomide]	75.6	74.9	79.7	50.7	79.8	71.4	76.7	57.5	72.7	43.9	76.7	66.7	73.1	57.0	77.9	50.8	75.0	68.6	66.3	42.5	Long-term stability, 2 month, -20°C Accuracy [%] (validation standard 2xLLOV): 58.1%; Long-term stability, 2 month, -80°C Accuracy [%] (validation standard ULOV): 79.5%; Long-term stability, 3 month, -20°C Accuracy [%] (validation standard ULOV): 33.5%; Long-term stability, 3 month, -80°C Accuracy [%] (validation standard ULOV): 78.0%
Nc1cccc2c1C(=O)N(C1CCC(=O)NC1=O)C2=O (stereo not drawn) [Pomalidomide]	90.4	90.2	96.6	95.5	97.4	91.3	85.8	95.9	99.9	97.6	97.4	90.6	88.3	97.2	99.4	90.0	94.9	94.6	89.1	94.1	Long-term stability, 2 month, -20°C Accuracy [%] (validation standard 2xLLOV): 107.3%; Long-term stability, 6 weeks, 4°C, without daylight Accuracy [%] (validation standard 2xLLOV): 19.0%; Long-term stability, 6 weeks, 4°C, without daylight Accuracy [%] (validation standard LLOV): 30.1%; Long-term stability, 6 weeks, 4°C, without daylight Accuracy [%] (validation standard MOV): 15.7%; Long-term stability, 2 month, -80°C Accuracy [%] (validation standard ULOV): 99.0%; Long-term stability, 3 month, -20°C Accuracy [%] (validation standard ULOV): 87.6%; Long-term stability, 3 month, -80°C Accuracy [%] (validation standard ULOV): 95.1%; Long-term stability, 6 weeks, 4°C, without daylight Accuracy [%] (validation standard ULOV): 11.3%
COc1cc2ncnc(Nc3ccc(F)c(Cl)c3)c2cc1NC(=O)/C=C/CN1CCCCC1 [Dacomitinib]	94.4	91.2	107.1	89.4	94.7	86.5	87.2	96.8	105.1	83.4	96.1	91.7	95.2	95.1	99.2	90.9	99.4	93.0	93.2	96.3	Long-term stability, 2 month, -20°C Accuracy [%] (validation standard 2xLLOV): 96.1%; Long-term stability, 6 weeks, 4°C, without daylight Accuracy [%] (validation standard 2xLLOV): 62.3%; Long-term stability, 6 weeks, 4°C, without daylight Accuracy [%] (validation standard LLOV): 61.0%; Long-term stability, 6 weeks, 4°C, without daylight Accuracy [%] (validation standard MOV): 79.1%; Long-term stability, 2 month, -80°C Accuracy [%] (validation standard ULOV): 99.6%; Long-term stability, 3 month, -20°C Accuracy [%] (validation standard ULOV): 90.3%; Long-term stability, 3 month, -80°C Accuracy [%] (validation standard ULOV): 97.6%; Long-term stability, 6 weeks, 4°C, without daylight Accuracy [%] (validation standard ULOV): 77.8%
O=C(Nc1cnn2ccc(N3CCC[C@@H]3c3cc(F)ccc3F)nc12)N1CC[C@H](O)C1 [Larotrectinib]	97.9	92.9	104.7	100.8	98.8	85.6	87.5	103.5	102.1	96.4	94.2	96.7	97.2	99.1	103.2	96.2	91.1	95.0	95.5	102.5	Long-term stability, 2 month, -20°C Accuracy [%] (validation standard 2xLLOV): 103.6%; Long-term stability, 6 weeks, 4°C, without daylight Accuracy [%] (validation standard 2xLLOV): 106.7%; Long-term stability, 6 weeks, 4°C, without daylight Accuracy [%] (validation standard LLOV): 115.2%; Long-term stability, 6 weeks, 4°C, without daylight Accuracy [%] (validation standard MOV): 105.2%; Long-term stability, 2 month, -80°C Accuracy [%] (validation standard ULOV): 104.6%; Long-term stability, 3 month, -20°C Accuracy [%] (validation standard ULOV): 97.8%; Long-term stability, 3 month, -80°C Accuracy [%] (validation standard ULOV): 95.6%; Long-term stability, 6 weeks, 4°C, without daylight Accuracy [%] (validation standard ULOV): 98.0%
COc1cc2nccc(Oc3ccc(NC(=O)C4(C(=O)Nc5ccc(F)cc5)CC4)cc3)c2cc1OC [Cabozantinib]	98.4	92.5	100.3	92.5	94.6	91.9	89.4	97.7	100.2	90.4	91.8	97.7	97.3	101.6	102.9	100.0	98.9	95.7	93.1	99.6	Long-term stability, 6 weeks, 4°C, without daylight Accuracy [%] (validation standard 2xLLOV): 96.8%; Long-term stability, 6 weeks, 4°C, without daylight Accuracy [%] (validation standard LLOV): 94.1%; Long-term stability, 6 weeks, 4°C, without daylight Accuracy [%] (validation standard MOV): 108.5%; Long-term stability, 2 month, -80°C Accuracy [%] (validation standard ULOV): 100.3%; Long-term stability, 3 month, -20°C Accuracy [%] (validation standard ULOV): 96.3%; Long-term stability, 3 month, -80°C Accuracy [%] (validation standard ULOV): 93.1%; Long-term stability, 6 weeks, 4°C, without daylight Accuracy [%] (validation standard ULOV): 101.8%
